Measured values published in patent US9732051B2, “Isothiazoline compounds for combating invertebrate pests” (BASF SE, priority 2011, dated 2017).

Key:
Type in all cases: in vivo
Myzus persicae = experiment: Green peach aphid systemic test, artificial diet in 96-well plates; details: 72 h, 3 days, in comparison with untreated controls
Source text: B.4 Green Peach Aphid (Myzus persicae)
For evaluating control of green peach aphid (Myzus persicae) through systemic means the test unit consisted of 96-well-microtiter plates containing liquid artificial diet under an artificial membrane.
The compounds were formulated using a solution containing 75% v/v water and 25% v/v DMSO. Different concentrations of formulated compounds were pipetted into the aphid diet, using a custom built pipetter, at two replications.
After application, 5-8 adult aphids were placed on the artificial membrane inside the microtiter plate wells. The aphids were then allowed to suck on the treated aphid diet and incubated at about 23±1° C. and about 50±5% relative humidity for 3 days. Aphid mortality and fecundity was then visually assessed.

Plutella xylostella = experiment: Diamond back moth leaf dip test; details: foliar, recorded 24, 72 and 120 hours after treatment, in comparison with untreated controls
Protocol: B.3 Diamond Back Moth (Plutella xylostella)
Leaves of Chinese cabbage were dipped in test solution and air-dried. Treated leaves were placed in petri dished lined with moist filter paper. Mortality was recorded 24, 72, and 120 hours after treatment.

Dichromothrips corbetti = experiment: Orchid thrips floral-immersion test; details: 96 h, after 4 days, in comparison with untreated controls
Protocol: B.6 Orchid Thrips (Dichromothrips corbetti)
Dichromothrips corbetti adults used for bioassay were obtained from a colony maintained continuously under laboratory conditions. For testing purposes, the test compound was diluted to a concentration of 500 ppm (wt compound: vol diluent) in a 1:1 mixture of acetone:water (vol:vol), plus 0.01% vol/vol Kinetic® surfactant.
Thrips potency of each compound was evaluated by using a floral-immersion technique. Plastic petri dishes were used as test arenas. All petals of individual, intact orchid flowers were dipped into treatment solution and allowed to dry. Treated flowers were placed into individual petri dishes along with 10-15 adult thrips. The petri dishes were then covered with lids. All test arenas were held under continuous light and a temperature of about 28° C. for duration of the assay. After 4 days, the numbers of live thrips were counted on each flower, and along inner walls of each petri dish. The level of thrips mortality was extrapolated from pre-treatment thrips numbers.

Anthonomus grandis = experiment: Boll weevil microtiter plate diet test, egg and larval mortality; details: 120 h, 5 days, in comparison with untreated controls
Protocol: B.12 Boll Weevil (Anthonomus grandis)
For evaluating control of boll weevil (Anthonomusgrandis) the test unit consisted of 24-well-microtiter plates containing an insect diet and 20-30 A. grandis eggs.
(§1) The compounds were formulated using a solution containing 75% v/v water and 25% v/v DMSO. Different concentrations of formulated compounds were sprayed onto the insect diet at 20 μl, using a custom built micro atomizer, at two replications.
After application, microtiter plates were incubated at about 23±1° C. and about 50±5% relative humidity for 5 days. Egg and larval mortality was then visually assessed.

Heliothis virescens = experiment: Tobacco budworm microtiter plate diet test, egg and larval mortality; details: 120 h, 5 days, in comparison with untreated controls
Protocol: B.11 Tobacco Budworm (Heliothis virescens) I
as §1, with “For evaluating control of tobacco budworm (Heliothis virescens) the test unit consisted of 96-well-microtiter plates containing an insect diet and 15-25 H. virescens eggs. The” for “The”, “10” for “20”
(§2) After application, microtiter plates were incubated at about 28±1° C. and about 80±5% relative humidity for 5 days. Egg and larval mortality was then visually assessed.

Spodoptera eridania = experiment: Southern armyworm spray test on lima bean plants; details: 96 h, 4 days after treatment, in comparison with untreated controls
Protocol: B.9 Southern Armyworm (Spodoptera eridania)
(§3) The active compounds were formulated in cyclohexanone as a 10,000 ppm solution supplied in tubes. The tubes were inserted into an automated electrostatic sprayer equipped with an atomizing nozzle and they served as stock solutions for which lower dilutions were made in 50% acetone:50% water (v/v). A nonionic surfactant (Kinetic®) was included in the solution at a volume of 0.01% (v/v).
Lima bean plants (variety Sieva) were grown 2 plants to a pot and selected for treatment at the 1st true leaf stage. Test solutions were sprayed onto the foliage by an automated electrostatic plant sprayer equipped with an atomizing spray nozzle. The plants were dried in the sprayer fume hood and then removed from the sprayer. Each pot was placed into perforated plastic bags with a zip closure. About 10 to 11 armyworm larvae were placed into the bag and the bags zipped closed. Test plants were maintained in a growth room at about 25° C. and about 20-40% relative humidity for 4 days, avoiding direct exposure to fluorescent light (24 hour photoperiod) to prevent trapping of heat inside the bags. Mortality and reduced feeding were assessed 4 days after treatment, compared to untreated control plants.

Ceratitis capitata = experiment: Mediterranean fruitfly microtiter plate diet test, egg and larval mortality; details: 120 h, 5 days, in comparison with untreated controls
Protocol: B.5 Mediterranean Fruitfly (Ceratitis capitata)
For evaluating control of Mediterranean fruitfly (Ceratitis capitata) the test unit consisted of microtiter plates containing an insect diet and 50-80 C. capitata eggs.
The compounds were formulated using a solution containing 75% v/v water and 25% v/v DMSO. Different concentrations of formulated compounds were sprayed onto the insect diet at 5 μl, using a custom built micro atomizer, at two replications.
as §2

Nephotettix virescens = experiment: Rice green leafhopper spray test on rice seedlings; details: after 72 hours, in comparison with untreated controls
Protocol: B.7 Rice Green Leafhopper (Nephotettix virescens)
Rice seedlings were cleaned and washed 24 hours before spraying. The active compounds were formulated in 50:50 acetone:water (vol:vol), and 0.1% vol/vol surfactant (EL 620) was added. Potted rice seedlings were sprayed with 5 ml test solution, air dried, placed in cages and inoculated with 10 adults. Treated rice plants were kept at about 28-29° C. and relative humidity of about 50-60%. Percent mortality was recorded after 72 hours.

Megoura viciae = experiment: Vetch aphid leaf disk test in 24-well plates; details: foliar, 120 h, 5 days, in comparison with untreated controls
Protocol: B.10 Vetch Aphid (Megoura viciae)
For evaluating control of vetch aphid (Megoura viciae) through contact or systemic means the test unit consisted of 24-well-microtiter plates containing broad bean leaf disks.
The compounds were formulated using a solution containing 75% v/v water and 25% v/v DMSO. Different concentrations of formulated compounds were sprayed onto the leaf disks at 2.5 μl, using a custom built micro atomizer, at two replications.
After application, the leaf disks were air-dried and 5-8 adult aphids placed on the leaf disks inside the microtiter plate wells. The aphids were then allowed to suck on the treated leaf disks and incubated at about 23±1° C. and about 50±5% relative humidity for 5 days. Aphid mortality and fecundity was then visually assessed.

Aphis craccivora = experiment: Cowpea aphid spray test on potted cowpea plants; details: assessed after 24, 72 and 120 hours, in comparison with untreated controls
Protocol: B.2 Cowpea Aphid (Aphis craccivora)
Potted cowpea plants colonized with approximately 100-150 aphids of various stages were sprayed after the pest population had been recorded. Population reduction was assessed after 24, 72, and 120 hours.

[1] = system: Leptinotarsa decemlineata; experiment: Colorado potato beetle spray test on eggplant foliage; details: foliar, 96 h, 4 days after treatment, in comparison with untreated controls
Protocol: B.13 Colorado Potato Beetle (Leptinotarsa decemlineata)
as §3
Eggplants were grown 2 plants to a pot and were selected for treatment at the 1st true leaf stage. Test solutions were sprayed onto the foliage by an automated electrostatic plant sprayer equipped with an atomizing spray nozzle. The plants were dried in the sprayer fume hood and then removed from the sprayer. The treated foliage was then cut and removed from the pot and placed in a 5-inch Petri dish lined with moistened filter paper. Five beetle larvae were introduced into each Petri dish and the dish was covered by a Petri dish lid. Petri dishes were maintained in a growth room at 25° C. and 20-40% relative humidity for 4 days, avoiding direct exposure to fluorescent light (24 hour photoperiod) to prevent trapping of heat inside the dishes. Mortality and reduced feeding were assessed 4 days after treatment, compared to untreated control plants.

Tetranychus kanzawai = experiment: Red spider mite spray test on cowpea beans; details: after 72 h, in comparison with untreated controls
Protocol: B.14 Red Spider Mite (Tetranychus kanzawai)
The active compound was dissolved at the desired concentration in a mixture of 1:1 (v/v) distilled water:acetone. A surfactant (Alkamuls® EL 620) was added at the rate of 0.1% (v/v).
Potted cowpea beans of 7-10 days of age were cleaned with tap water and sprayed with 5 ml of the test solution using air driven hand atomizer. The treated plants were allowed to air dry and afterwards inculated with 20 or more mites by clipping a cassava leaf section with known mite population. Treated plants were placed inside a holding room at about 25-27° C. and about 50-60% relatice humidity.
Mortality was determined by counting the live mites 72 HAT. Percent mortality was assessed after 72 h.

CCSCC(=O)N(CC)Cc1ccc(C2=NSC(c3cc(Cl)cc(Cl)c3)(C(F)(F)F)C2)cc1C (stereo not drawn) [Compound 3-3, N-[[4-[5-(3,5-Dichlorophenyl)-5-(trifluoromethyl)-4H-isothiazol-3-yl]-2-methyl-phenyl]methyl]-N-ethyl-2-ethylsulfanyl-acetamide]
≥ 75%: mortality at 2500 ppm (Myzus persicae) | mortality at 500 ppm (Plutella xylostella) | mortality at 500 ppm (Dichromothrips corbetti) | mortality at 2500 ppm (Anthonomus grandis) | mortality at 2500 ppm (Heliothis virescens) | mortality at 1 ppm (Spodoptera eridania) | mortality at 2500 ppm (Ceratitis capitata) | mortality at 500 ppm (Nephotettix virescens)

CCNC(=O)N/N=C/c1ccc(C2=NSC(c3cc(Cl)cc(Cl)c3)(C(F)(F)F)C2)cc1C (stereo not drawn) [Compound 1-5, 1-[(E)-[4-[5-(3,5-dichlorophenyl)-5-(trifluoromethyl)-4H-isothiazol-3-yl]-2-methyl-phenyl]methyleneamino]-3-ethyl-urea]
≥ 75%: mortality at 2500 ppm (Myzus persicae) | mortality at 500 ppm (Plutella xylostella) | mortality at 2500 ppm (Megoura viciae) | mortality at 500 ppm (Dichromothrips corbetti) | mortality at 2500 ppm (Anthonomus grandis) | mortality at 2500 ppm (Heliothis virescens) | mortality at 1 ppm (Spodoptera eridania) | mortality at 2500 ppm (Ceratitis capitata)

Cc1cc(C2=NSC(c3cc(Cl)cc(Cl)c3)(C(F)(F)F)C2)ccc1C(=O)NCC(=O)NCC(F)(F)F (stereo not drawn) [Compound 2-1, 4-[5-(3,5-Dichlorophenyl)-5-trifluoromethyl-4H-isothiazol-3-yl]-2-methyl-N-[2-oxo-2-(2,2,2-trifluoroethylamino)ethyl]benzamide]
≥ 75%: mortality at 2500 ppm (Myzus persicae) | mortality at 500 ppm (Plutella xylostella) | mortality at 2500 ppm (Megoura viciae) | mortality at 500 ppm (Aphis craccivora) | mortality at 500 ppm (Dichromothrips corbetti) | mortality at 2500 ppm (Anthonomus grandis) | mortality at 1 ppm [1] | mortality at 2500 ppm (Heliothis virescens) | mortality at 1 ppm (Spodoptera eridania) | mortality at 500 ppm (Tetranychus kanzawai) | mortality at 2500 ppm (Ceratitis capitata) | mortality at 500 ppm (Nephotettix virescens)

Cc1cc(C2=NSC(c3cc(Cl)cc(Cl)c3)(C(F)(F)F)C2F)ccc1C(=O)NCC(=O)NCC(F)(F)F (stereo not drawn) [Compound 5-1, 4-[5-(3,5-dichlorophenyl)-4-fluoro-5-(trifluoromethyl)-4H-isothiazol-3-yl]-2-methyl-N-[2-oxo-2-(2,2,2-trifluoroethylamino)ethyl]benzamide]
≥ 75%: mortality at 2500 ppm (Myzus persicae) | mortality at 500 ppm (Plutella xylostella) | mortality at 2500 ppm (Megoura viciae) | mortality at 500 ppm (Dichromothrips corbetti) | mortality at 2500 ppm (Anthonomus grandis) | mortality at 2500 ppm (Heliothis virescens) | mortality at 500 ppm (Tetranychus kanzawai) | mortality at 2500 ppm (Ceratitis capitata)
